We go through 15 compounds from US11524966B1 (Valo Early Discovery, Inc., priority 2017, dated 2022).

Each structure is given as a SMILES string.

This assay has as its target T1, USP28 (His-tagged USP28-FL-mammalian) (Homo sapiens, UniProt Q96RU2).
T1 construct: Expression of USP28 (1-1077)-TEV-6*His (pTT5 vector); made in house; host or cells: Expi293f cells (pTT5 vector)
T1 sequence (Q96RU2 1-1077): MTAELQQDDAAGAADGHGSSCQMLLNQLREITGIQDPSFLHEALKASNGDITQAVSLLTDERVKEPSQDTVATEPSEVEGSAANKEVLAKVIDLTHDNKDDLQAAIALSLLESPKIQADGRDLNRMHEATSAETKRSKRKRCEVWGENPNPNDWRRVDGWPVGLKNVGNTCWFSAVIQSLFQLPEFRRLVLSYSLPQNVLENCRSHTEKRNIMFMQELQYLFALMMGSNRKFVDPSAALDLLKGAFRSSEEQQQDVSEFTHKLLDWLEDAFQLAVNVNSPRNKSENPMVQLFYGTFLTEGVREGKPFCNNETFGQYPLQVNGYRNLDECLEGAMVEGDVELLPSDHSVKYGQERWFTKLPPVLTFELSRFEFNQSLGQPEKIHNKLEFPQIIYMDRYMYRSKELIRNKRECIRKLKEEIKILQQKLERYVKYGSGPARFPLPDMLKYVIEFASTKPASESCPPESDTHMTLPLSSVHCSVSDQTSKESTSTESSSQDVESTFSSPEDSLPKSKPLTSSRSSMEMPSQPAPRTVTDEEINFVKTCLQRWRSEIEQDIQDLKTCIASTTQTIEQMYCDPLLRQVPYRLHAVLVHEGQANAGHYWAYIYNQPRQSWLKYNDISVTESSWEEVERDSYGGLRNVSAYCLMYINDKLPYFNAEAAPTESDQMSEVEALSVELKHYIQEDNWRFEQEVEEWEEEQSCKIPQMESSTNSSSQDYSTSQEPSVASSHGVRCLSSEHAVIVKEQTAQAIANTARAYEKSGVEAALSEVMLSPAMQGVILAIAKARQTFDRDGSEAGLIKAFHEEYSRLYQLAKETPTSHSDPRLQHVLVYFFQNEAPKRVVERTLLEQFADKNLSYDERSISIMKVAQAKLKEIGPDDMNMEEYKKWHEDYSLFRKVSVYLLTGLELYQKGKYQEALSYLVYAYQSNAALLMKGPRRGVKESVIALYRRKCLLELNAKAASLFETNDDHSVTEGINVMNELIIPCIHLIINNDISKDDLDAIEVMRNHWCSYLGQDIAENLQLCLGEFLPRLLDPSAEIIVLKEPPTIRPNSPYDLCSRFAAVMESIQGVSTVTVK
Nature of the assay: Ubiquitin-Rhodamine 110 Assay for USP28 Activity, Example A-1(a). The note with it: Ubiquitin-Rhodamine 110 assay, Example A-1(a); read-out: USP28 A-1(a) IC50 range. The assay is classed as biochemical. An outline of the steps: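 Full-length His-tagged USP28 (1-1077, Expi293F-expressed; […]) was preincubated 30 min with compound (25 μM–1.3 nM, 10-point 3-fold) in 20 mM Tris-HCl pH 8.0, 3 mM BME, 0.03% BGG, 0.01% Triton X-100. Ub-Rh110 (25 nM) was then added for 45 min at room temperature, stopped with citric acid, and read by fluorescence (485/535 nm).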
As usually defined, the IC50 is the concentration that gives 50% inhibition. `Cc1ccc2c(N)c(C(=O)N[C@H]3COc4cc(N5C[C@@H](N)CC[C@H]5C(F)(F)F)ccc4C3)sc2n1` [Example 245, 3-amino-N-[(3R)-7-[(2S,5S)-5-amino-2-(trifluoromethyl)piperidin-1-yl]-3,4-dihydro-2H-1-benzopyran-3-yl]-6-methylthieno[2,3-b]pyridine-2-carboxamide]: the concentration for half-maximal inhibition (IC50) was in the range of 1 to 50 nM. With `Cc1ccc2c(N)c(C(=O)N[C@H]3COc4cc(N5C[C@H](OC(C)C)[C@@H](N)C5)ccc4C3)sc2n1` [Example 202, 3-amino-N-[(3R)-7-[(3S,4S)-3-amino-4-(propan-2-yloxy)pyrrolidin-1-yl]-3,4-dihydro-2H-1-benzopyran-3-yl]6-methylthieno[2,3-b]pyridine-2-carboxamide], the IC50 lay within 1 to 50 nM.

Regarding `Cc1ccc2c(N)c(C(=O)N[C@H]3COc4cc(N5CCO[C@H]6CNC[C@H]65)ccc4C3)sc2n1` [Example 184, N-[(3R)-7-[(4aR, 7aS)-octahydropyrrolo[3,4-b]morpholin-4-yl]-3,4-dihydro-2H-1-benzopyran-3-yl]-3-amino-6-methylthieno[2,3-b]pyridine-2-carboxamide], the IC50 lay within 1 to 50 nM. For the compound `CO[C@H]1CN(c2ccc3c(n2)OC[C@H](NC(=O)c2sc4nc(C)cnc4c2N)C3)C[C@@H]1N` [Example 181, 7-amino-N-[(3R)-7-[(3S,4S)-3-amino-4-methoxypyrrolidin-1-yl]-2H,3H,4H-pyrano[2,3-b]pyridin-3-yl]-3-methylthieno[2,3-b]pyrazine-6-carboxamide], the IC50 lay in the range of 200 to 2000 nM. Regarding `CO[C@@]1(C)CN(c2ccc3c(n2)CC[C@H](NC(=O)c2sc4nc(C)ccc4c2N)C3)C[C@@H]1N` [Example 210, 3-amino-N-[(6S)-2-[(3S,4S)-4-amino-3-methoxy-3-methylpyrrolidin-1-yl]-5,6,7,8-tetrahydroquinolin-6-yl]-6-methylthieno[2,3-b]pyridine-2-carboxamide], the IC50 is 50 to 200 nM. In the case of `Cc1ccc2c(N)c(C(=O)N[C@H]3COc4cc(N5C[C@H](N)CC[C@@H]5C(F)(F)F)ccc4C3)sc2n1` [Example 244, 3-amino-N-[(3R)-7-[(2R,5R)-5-amino-2-(trifluoromethyl)piperidin-1-yl]-3,4-dihydro-2H-1-benzopyran-3-yl]-6-methylthieno[2,3-b]pyridine-2-carboxamide] it was 1 to 50 nM; in that of `Cc1cc(C)c2c(N)c(C(=O)N[C@H]3COc4cc(N5CC[C@H]6CNC[C@H]65)cc(F)c4C3)sc2n1` (single isomer, unassigned) [Example 222], 1 to 50 nM.

`Cc1ccc2c(N)c(C(=O)N[C@H]3COc4cc(N5C[C@@H]6NCCC(F)(F)[C@@H]6C5)ccc4C3)sc2n1` [Example 237, N-[(3R)-7-[(4aR,7aR)-4,4-difluoro-octahydro-1H-pyrrolo[3,4-b]pyridin-6-yl]-3,4-dihydro-2H-1-benzopyran-3-yl]-3-amino-6-methylthieno[2,3-b]pyridine-2-carboxamide]: the IC50 lay within 1 to 50 nM. In the case of `CN[C@H]1CN(c2ccc3c(c2)OC[C@H](NC(=O)c2sc4nc(C)ccc4c2N)C3)C[C@@H]1OC` [Example 212, 3-amino-N-[(3R)-7-[(3S,4S)-3-methoxy-4-(methylamino)pyrrolidin-1-yl]-3,4-dihydro-2H-1-benzopyran-3-yl]-6-methylthieno[2,3-b]pyridine-2-carboxamide], the IC50 was in the range of 1 to 50 nM.

`Cc1ccc2c(N)c(C(=O)N[C@H]3Cc4ccc(N5CCNCC5)nc4[C@H](C)C3)sc2n1` [Example 208, 3-amino-6-methyl-N-[(6R,8R)-8-methyl-2-(piperazin-1-yl)-5,6,7,8-tetrahydroquinolin-6-yl]thieno[2,3-b]pyridine-2-carboxamide]: the IC50 fell in the range of 1 to 50 nM.

As to `N#Cc1c(N2CC3CCC(C2)N3)cc(F)c2c1CC[C@@H](NC(=O)c1cnc3c(c1)[C@@H]1C[C@@H]1CN3)C2` [Example 197, (6aS,7aR)-N-[(2R)-5-cyano-6-{3,8-diazabicyclo[3.2.1]octan-3-yl}-8-fluoro-1,2,3,4-tetrahydronaphthalen-2-yl]-5H,6H,6aH,7H,7aH-cyclopropa[c]1,8-naphthyridine-2-carboxamide], the IC50 is over 2000 nM. Consider `CO[C@H]1CN(c2ccc3c(c2)CC[C@H](NC(=O)c2cnc4c(c2)[C@H]2C[C@H]2CN4)C3)C[C@@H]1N` [Example 190, (6aR,7aS)-N-[(2S)-6-[(3S,4S)-3-amino-4-methoxypyrrolidin-1-yl]-1,2,3,4-tetrahydronaphthalen-2-yl]-5H,6H,6aH,7H,7aH-cyclopropa[c]1,8-naphthyridine-2-carboxamide], for which the IC50 was over 2000 nM. In the case of `Cc1ccc2c(N)c(C(=O)N[C@H]3COc4cc(N5C[C@@H](N)CC[C@@H]5C(F)(F)F)ccc4C3)sc2n1` [Example 246, 3-amino-N-[(3R)-7-[(2R,5S)-5-amino-2-(trifluoromethyl)piperidin-1-yl]-3,4-dihydro-2H-1-benzopyran-3-yl]-6-methylthieno[2,3-b]pyridine-2-carboxamide] it was 1 to 50 nM; in that of `Cc1ccc2c(N)c(C(=O)N[C@H]3COc4cc(N5C6CNCC5COC6)ccc4C3)sc2n1` [Example 209, 3-amino-6-methyl-N-[(3R)-7-{3-oxa-7,9-diazabicyclo[3.3.1]nonan-9-yl}-3,4-dihydro-2H-1-benzopyran-3-yl]thieno[2,3-b]pyridine-2-carboxamide], 1 to 50 nM; in that of `COC[C@H]1CN(c2cc(F)c3c(c2)OC[C@H](NC(=O)c2sc4nc(C)ccc4c2N)C3)C[C@H]1N` [Example 251, 3-amino-N-[(3R)-7-[(3S,4S)-3-amino-4-(methoxymethyl)pyrrolidin-1-yl]-5-fluoro-3,4-dihydro-2H-1-benzopyran-3-yl]-6-methylthieno[2,3-b]pyridine-2-carboxamide], 1 to 50 nM.
